Laboratory results published in US20060241172A1, “Benzodioxane and benzodioxolane derivatives and uses thereof” (Wyeth, priority 2005, published 2006).
Counter-ions that a name gives are not always drawn.

System: not given
Test: not given
Details: not given

SMILES	melting point [°C]
Cc1ccccc1-c1cc(Cl)cc2c1OC(CN)O2 (centres unmarked) (as salt: hydrochloride) [Compound I-91, [6-Chloro-4-(2-methyl-phenyl)-benzo[1,3]dioxol-2-yl]-methylamine]	> 250
COc1ccc(OC)c(-c2cc(Cl)cc3c2OC(CN)O3)c1 (centres unmarked) (as salt: hydrochloride) [Compound I-100, [6-Chloro-4-(2,5-dimethoxy-phenyl)-benzo[1,3]dioxol-2-yl]-methylamine]	225 to 227
NCC1COc2cccc(-c3ccc(F)cc3F)c2O1 (centres unmarked) (as salt: fumarate) [Compound I-14, {[8-(2,4-Difluorophenyl)-2,3-dihydro-1,4-benzodioxin-2-yl]methyl}amine]	183 to 184
Cc1ccccc1-c1cccc2c1OC(CN)CO2 (centres unmarked) (as salt: fumarate) [Compound I-3, {[8-(2-Methylphenyl)-2,3-dihydro-1,4-benzodioxin-2-yl]methyl}amine]	201 to 202
COc1ccc(Cl)cc1-c1cccc2c1OC(CN)CO2 (centres unmarked) (as salt: fumarate) [Compound I-16, {[8-(5-Chloro-2-methoxyphenyl)-2,3-dihydro-1,4-benzodioxin-2-yl]methyl}amine]	192 to 193
CNCC1COc2cccc(-c3ccccc3OC)c2O1 (centres unmarked) (as salt: fumarate) [Compound I-19, {[8-(2-Methoxyphenyl)-2,3-dihydro-1,4-benzodioxin-2-yl]methyl}methylamine]	168 to 169
COc1ccc(Cl)cc1-c1cc(Cl)cc2c1O[C@@H](CN)CO2 (as salt: hydrochloride) [Compound I-68, (2S)-[6-Chloro-8-(5-chloro-2-methoxy-phenyl)-2,3-dihydro-benzo[1,4]dioxin-2-yl]-methylamine]	230 to 232
NCC1Oc2cc(Cl)cc(-c3cc(Cl)ccc3Cl)c2O1 (centres unmarked) (as salt: hydrochloride) [Compound I-98, [6-Chloro-4-(2,5-dichloro-phenyl)-benzo[1,3]dioxol-2-yl]-methylamine]	246 to 248
Clc1ccc(-c2cccc3c2OC(CNC2CCC2)CO3)c(Cl)c1 (centres unmarked) (as salt: fumarate) [Compound I-45, N-{[8-(2,4-Dichlorophenyl)-2,3-dihydro-1,4-benzodioxin-2-yl]methyl}cyclobutanamine]	204 to 205
COc1ccccc1-c1cc(Cl)cc2c1OC(CN)O2 (centres unmarked) (as salt: hydrochloride) [Compound I-92, [6-Chloro-4-(2-methoxy-phenyl)-benzo[1,3]dioxol-2-yl]-methylamine]	245 to 246
CC(C)NCC1COc2cccc(-c3ccc(Cl)cc3Cl)c2O1 (centres unmarked) (as salt: fumarate) [Compound I-37, N-{[8-(2,4-Dichlorophenyl)-2,3-dihydro-1,4-benzodioxin-2-yl]methyl}propan-2-amine]	222 to 223
C[C@]1(CN)COc2cccc(-c3ccc(Cl)cc3)c2O1 (as salt: fumarate) [Compound I-51, {[(2S)-8-(4-Chlorophenyl)-2-methyl-2,3-dihydro-1,4-benzodioxin-2-yl]methyl}amine]	155 to 158
Cc1cccc(C)c1-c1cccc2c1OC(CN)CO2 (centres unmarked) (as salt: fumarate) [Compound I-12, {[8-(2,6-Dimethylphenyl)-2,3-dihydro-1,4-benzodioxin-2-yl]methyl}amine]	205 to 206
COc1cccc(-c2cccc3c2OC(CN)CO3)c1OC (centres unmarked) (as salt: fumarate) [Compound I-9, {[8-(2,3-Dimethoxyphenyl)-2,3-dihydro-1,4-benzodioxin-2-yl]methyl}amine]	198 to 199
NC[C@H]1COc2ccc(Cl)c(-c3ccccc3Cl)c2O1 (as salt: hydrochloride) [Compound I-70, (2S)-[7-Chloro-8-(2-chloro-phenyl)-2,3-dihydro-benzo[1,4]dioxin-2-yl]-methylamine]	105
NCC1Oc2cc(Cl)cc(-c3ccccc3-c3ccccc3)c2O1 (centres unmarked) (as salt: hydrochloride) [Compound I-101, [6-Chloro-4-biphenyl-benzo[1,3]dioxol-2-yl]-methylamine]	196 to 198
Clc1ccccc1-c1cccc2c1OC(CNCC1CC1)CO2 (centres unmarked) (as salt: fumarate) [Compound I-41, {[8-(2-Chlorophenyl)-2,3-dihydro-1,4-benzodioxin-2-yl]methyl}(cyclopropylmethyl)-amine]	138 to 140
COc1ccc(Cl)cc1-c1cc(Cl)cc2c1OC(CN)O2 (centres unmarked) (as salt: hydrochloride) [Compound I-94, [6-Chloro-4-(2-methoxy-5-chloro-phenyl)-benzo[1,3]dioxol-2-yl]-methylamine]	228 to 230
NCC1COc2cccc(-c3ccccc3Cl)c2O1 (centres unmarked) (as salt: fumarate) [Compound I-1, {[8-(2-Chlorophenyl)-2,3-dihydro-1,4-benzodioxin-2-yl]methyl}amine]	210 to 211
NCC1COc2cccc(-c3ccccc3F)c2O1 (centres unmarked) (as salt: fumarate) [Compound I-2, {[8-(2-Fluorophenyl)-2,3-dihydro-1,4-benzodioxin-2-yl]methyl}amine]	188 to 190
NCC1Oc2cc(F)cc(-c3ccccc3)c2O1 (centres unmarked) (as salt: hydrochloride) [Compound I-77, 1-(6-Fluoro-4-phenyl-1,3-benzodioxol-2-yl)methanamine]	227 to 229
NCC1Oc2cc(F)cc(-c3ccccc3C(F)(F)F)c2O1 (centres unmarked) (as salt: hydrochloride) [Compound I-82, 1-[4-(2-Trifluoromethyl-phenyl)-6-fluoro-1,3-benzodioxol-2-yl]methanamine]	178 to 180
C[C@]1(CN)COc2cccc(-c3ccccc3)c2O1 (as salt: fumarate) [Compound I-48, {[(2S)-2-Methyl-8-phenyl-2,3-dihydro-1,4-benzodioxin-2-yl]methyl}amine]	130 to 133
C[C@]1(CN)COc2cccc(-c3ccsc3)c2O1 (as salt: fumarate) [Compound I-53, {[(2S)-2-Methyl-8-thien-3-yl-2,3-dihydro-1,4-benzodioxin-2-yl]methyl}amine]	158 to 161

Target: T1, human 5-hydroxytryptamine-2C (h5-HT2C) receptor (Homo sapiens, UniProt P28335)
T1 construct: expressed in transfected cells; host or cells: CHO (Chinese Hamster Ovary) cells; membranes
T1 sequence (P28335 33-458): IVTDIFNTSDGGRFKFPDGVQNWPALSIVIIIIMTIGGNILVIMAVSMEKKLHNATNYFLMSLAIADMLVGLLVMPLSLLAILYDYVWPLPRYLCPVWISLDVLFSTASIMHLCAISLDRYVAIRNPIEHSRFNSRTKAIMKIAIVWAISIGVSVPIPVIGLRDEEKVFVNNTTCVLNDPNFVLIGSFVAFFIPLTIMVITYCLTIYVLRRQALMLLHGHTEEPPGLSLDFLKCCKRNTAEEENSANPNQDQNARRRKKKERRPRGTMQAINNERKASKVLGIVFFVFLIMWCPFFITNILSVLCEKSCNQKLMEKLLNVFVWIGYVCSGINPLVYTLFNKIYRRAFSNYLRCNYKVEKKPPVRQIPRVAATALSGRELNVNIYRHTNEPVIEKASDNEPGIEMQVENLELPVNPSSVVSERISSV
Test: 5-HT2C binding: [125I]DOI displacement in membranes of transfected CHO cells
Details: read-out: 5-HT2C Binding Ki avg

SMILES	Ki [nM]
C[C@]1(CN)COc2cccc(-c3ccc(Cl)cc3)c2O1 [Compound I-51, {[(2S)-8-(4-Chlorophenyl)-2-methyl-2,3-dihydro-1,4-benzodioxin-2-yl]methyl}amine]	> 200
COc1ccc(OC)c(-c2cc(Cl)cc3c2OC(CN)O3)c1 (centres unmarked) [Compound I-100, [6-Chloro-4-(2,5-dimethoxy-phenyl)-benzo[1,3]dioxol-2-yl]-methylamine]	> 200
Cc1cc(Cl)ccc1-c1cc(Cl)cc2c1O[C@@H](CN)CO2 [Compound I-65, (2S)-[6-Chloro-8-(4-chloro-2-methyl-phenyl)-2,3-dihydro-benzo[1,4]dioxin-2-yl]-methylamine]	< 50
CN(C)CC1Oc2cc(F)cc(-c3ccccc3Cl)c2O1 (centres unmarked) [Compound I-89, 1-[4-(2-chlorophenyl)-6-fluoro-1,3-benzodioxol-2-yl]-N,N-dimethylmethanamine]	50 to 200
NCC1Oc2cc(F)cc(-c3ccc(Cl)cc3)c2O1 (centres unmarked) [Compound I-79, 1-[4-(4-Chloro-phenyl)-6-fluoro-1,3-benzodioxol-2-yl]methanamine]	50 to 200
